Test results taken from patent US9427402B2, “Preparation for improving solubility of poorly soluble drug” (Shionogi & Co. Ltd., priority 2010, dated 2016).
In brackets after ≈: the same amount, converted by molar mass. Like-named read-outs stand apart in the source and are kept apart here.

Assay: Solubility evaluation of drugs (buffer solutions, 37° C., HPLC)
Assay type: physicochemical
Details: for solubility in words: acidic / neutral solvents, conclusion from Table 1; for solubility at 3 h: thermodynamic from solid
Protocol: A solvent was added to a drug, and ultrasonic irradiation treatment was performed on the resulting solution. The solution was agitated for 3 hours at 37° C. After 3 hours, the sample was filtered with a 0.45 μm filter, and the concentration of the drug in the filtrate was measured by a HPLC method. The solvents used were 100 mM of a citrate buffer solution (pH 4), 100 mM of a phosphate buffer (pH 7) and 100 mM of carbonic acid buffer solution (pH 9).

[1] = aqueous buffer, 100 mM citrate buffer solution (pH 4), 37° C., 3 hours, read-out: Solubility pH 4
[2] = aqueous buffer, 100 mM phosphate buffer (pH 7), 37° C., 3 hours, read-out: Solubility pH 7

solubility at 3 h (aqueous buffer, 100 mM carbonic acid buffer solution (pH 9), 37° C., 3 hours, read-out: Solubility pH 9) [µg/mL]	solubility at 3 h [1] [µg/mL]	solubility at 3 h [2] [µg/mL]	solubility at 3 h (buffer solution, 37 °C, pH 7, aqueous buffer, solvent with a pH of 7 or less, read-out: solubility in a solvent with a pH of 7 or less) [µg/mL]	SMILES	solubility in words
7.7 (≈ 13 µM)	≤ 0.0004	≤ 0.0004	≤ 0.0004	CCCCCCO[C@@H](C)c1cccc(-c2csc(NC(=O)c3cc(Cl)c(/C=C(\C)C(=O)O)c(Cl)c3)n2)c1OC [Compound C-3B, (S)-(E)-3-(2,6-dichloro-4-{4-[3-(1-hexyloxyethyl)-2-methyloxyphenyl]thiazole 2-ylcarbamoyl}phenyl)-2-methylacrylic acid]	poorly soluble in an acidic and a neutral solvents
	0.5 (≈ 1.4 µM)	25 (≈ 69.9 µM)		COc1ccc2c(c1)c(CC(=O)O)c(C)n2C(=O)c1ccc(Cl)cc1 [Indomethacin, indomethacin, reference compound]	poorly soluble in an acidic solvent
